This note sets out measurements from US8466290B2, “STAT3 inhibitor containing quinolinecarboxamide derivative as active ingredient” (Pharma IP General Incorporated Association, priority 2008, dated 2013).

For the first assay, the system named is STAT3. As to the kind of experiment: STAT3 transcription inhibition test (reporter gene method, oncostatin M stimulation). In kind it is cell-based. The following applies: Homo sapiens; compound at 100 μM; STAT3 reporter HeLa stable cell line; oncostatin M 10 ng/mL, 4 hours; read-out: STAT3 transcription inhibitory activity (%). The procedure: The inhibition of STAT3 transcription was evaluated by using STAT3 reporter HeLa stable cell line (Panomics Inc., catalog No. RC0003), a cell line for the reporter gene method, and performing the following method according to the appendix included therein.
STAT3 reporter HeLa stable cell line subcultured and maintained in a Dulbecco's modified Eagle's medium (DMEM) containing 10% fetal bovine serum, 100 units/mL penicillin, and 100 μg/mL streptomycin was inoculated at a concentration of 40000 cells/well to a 96-well plate (white) and attached to the plate by overnight incubation at 37° C. under 5% CO2. After addition of each evaluation compound adjusted to various concentrations (adjusted with a DMSO solution), the cells were precultured for 1 hour. Then, oncostatin M for activating STAT3 was added at a final concentration 10 ng/mL, and the cells were further cultured at 37° C. under 5% CO2 for 4 hours. Luciferase activity derived from the cells was determined using Steady-Glo Luciferase Assay System (Promega Corp.), and STAT3 transcriptional activity scores were calculated according to the following formula: STAT3 transcriptional activity score (%)=100×(Lchem−L0)/(LDMSO−L0) Lo: luminescence intensity obtained without stimulation with oncostatin M Lchem: luminescence intensity obtained by the addition of a test sample LDMSO: luminescence intensity obtained by the addition of only a solvent for dissolving a test sample
Regarding `O=C(Nc1nnc(-c2ccoc2)o1)c1cc(-c2ccccc2)nc2ccccc12` [Ia-2, N-[5-(3-furyl)-1,3,4-oxadiazol-2-yl]-2-phenyl-4-quinolinecarboxamide], the inhibition at 100 µM was above 100%.

As to `O=C(Nc1nnc(-c2ccccc2)o1)c1cc(-c2ccccc2)nc2ccccc12` [Ia-3, 2-phenyl-N-(5-phenyl-1,3,4-oxadiazol-2-yl)-4-quinolinecarboxamide], the inhibition at 100 µM was above 100%.

On to `O=C(Nc1nnc(-c2ccc(Cl)cc2)o1)c1cc(-c2ccccc2)nc2ccccc12` [Ia-5, N-[5-(4-chlorophenyl)-1,3,4-oxadiazol-2-yl]-2-phenyl-4-quinolinecarboxamide], for which the inhibition at 100 µM was above 100%.

On to `O=C(Nc1nnc(-c2ccc([N+](=O)[O-])cc2)o1)c1cc(-c2ccccc2)nc2ccccc12` [Ia-7, N-[5-(4-nitrophenyl)-1,3,4-oxadiazol-2-yl]-2-phenyl-4-quinolinecarboxamide], for which the inhibition at 100 µM was 65%.

`O=C(Nc1nnc(-c2cccnc2)o1)c1cc(-c2ccccc2)nc2ccccc12` [Ia-9, 2-phenyl-N-[5-(3-pyridyl)-1,3,4-oxadiazol-2-yl]-4-quinolinecarboxamide]: the inhibition at 100 µM came out at 65%.

As to `O=C(Nc1nnc(-c2ccco2)o1)c1cc(N2CCCCC2)nc2ccccc12` [Ia-14, N-[5-(2-furyl)-1,3,4-oxadiazol-2-yl]-2-piperidino-4-quinolinecarboxamide], the inhibition at 100 µM was 63%.

Take `O=C(Nc1nnc(-c2ccco2)o1)c1cc(-c2cccc([N+](=O)[O-])c2)nc2ccccc12` [Ia-16, N-[5-(2-furyl)-1,3,4-oxadiazol-2-yl]-2-(3-nitrophenyl)-4-quinolinecarboxamide]: the inhibition at 100 µM is 62%.

Take `O=C(Nc1nnc(-c2ccco2)o1)c1cc(-c2ccco2)nc2ccccc12` [Ia-18, 2-(2-furyl)-N-[5-(2-furyl)-1,3,4-oxadiazol-2-yl]-4-quinolinecarboxamide]: the inhibition at 100 µM stood at 68%.

On to `COc1ccc2nc(-c3ccccc3)cc(C(=O)Nc3nnc(-c4ccco4)o3)c2c1` [Ia-23, N-[5-(2-furyl)-1,3,4-oxadiazol-2-yl]-6-methoxy-2-phenyl-4-quinolinecarboxamide], for which the inhibition at 100 µM was found to be 100%.

Regarding `Cc1c(Cl)ccc2c(C(=O)Nc3nnc(-c4ccco4)o3)cc(-c3ccccc3)nc12` [Ia-26, 7-chloro-N-[5-(2-furyl)-1,3,4-oxadiazol-2-yl]-8-methyl-2-phenyl-4-quinolinecarboxamide], the inhibition at 100 µM came out at 73%.

For `Cc1ccc(-c2cc(C(=O)Nc3nnc(-c4ccco4)o3)c3cccc(C)c3n2)cc1` [Ia-27, N-[5-(2-furyl)-1,3,4-oxadiazol-2-yl]-8-methyl-2-(4-tolyl)-4-quinolinecarboxamide], the inhibition at 100 µM turned out to be 71%.

For the compound `Cc1c(Cl)ccc2c(C(=O)Nc3nnc(-c4ccco4)o3)cc(-c3ccco3)nc12` [Ia-28, 7-chloro-2-(2-furyl)-N-[5-(2-furyl)-1,3,4-oxadiazol-2-yl]-8-methyl-4-quinolinecarboxamide], the inhibition at 100 µM was above 100%.

Consider `Cc1ccc2nc(-c3cccs3)cc(C(=O)Nc3nnc(-c4ccco4)o3)c2c1` [Ia-29, N-[5-(2-furyl)-1,3,4-oxadiazol-2-yl]-6-methyl-2-(2-thienyl)-4-quinolinecarboxamide], for which the inhibition at 100 µM turned out to be 65%.

`O=C(Nc1nnc(-c2ccco2)o1)c1cc(-c2cccs2)nc2ccc(Cl)cc12` [Ia-30, 6-chloro-N-[5-(2-furyl)-1,3,4-oxadiazol-2-yl]-2-(2-thienyl)-4-quinolinecarboxamide]: the inhibition at 100 µM worked out at 62%.

`O=C(Nc1nnc(-c2ccco2)o1)c1cc(-c2cccs2)nc2c(Cl)cccc12` [Ia-32, 8-chloro-N-[5-(2-furyl)-1,3,4-oxadiazol-2-yl]-2-(2-thienyl)-4-quinolinecarboxamide]: the inhibition at 100 µM amounted to 90%.

With `O=C(Nc1nnc(-c2ccco2)o1)c1cc(-c2ccccc2Cl)nc2ccccc12` [Ia-37, 2-(2-chlorophenyl)-N-[5-(2-furyl)-1,3,4-oxadiazol-2-yl]-4-quinolinecarboxamide], the inhibition at 100 µM was 100%.

For the compound `Nc1ccccc1-c1cc(C(=O)Nc2nnc(-c3ccco3)o2)c2ccccc2n1` [Ia-40, 2-(2-aminophenyl)-N-[5-(2-furyl)-1,3,4-oxadiazol-2-yl]-4-quinolinecarboxamide], the inhibition at 100 µM was 62%.

In the case of `O=C(Nc1nnc(-c2ccco2)o1)c1cc(-c2ccc(O)cc2)nc2ccccc12` [Ia-50, N-[5-(2-furyl)-1,3,4-oxadiazol-2-yl]-2-(4-hydroxyphenyl)-4-quinolinecarboxamide], the inhibition at 100 µM stood at 73%.

On to `Cc1ccc(-c2cc(C(=O)Nc3nnc(-c4ccco4)o3)c3ccccc3n2)c(C)c1` [Ia-56, N-[5-(2-furyl)-1,3,4-oxadiazol-2-yl]-2-(2,4-dimethylphenyl)-4-quinolinecarboxamide], for which the inhibition at 100 µM amounted to 99%.

As to `O=C(Nc1nnc(-c2ccco2)o1)c1cc(-c2ccco2)nc2c(Cl)cccc12` [Ia-79, 8-chloro-2-(2-furyl)-N-[5-(2-furyl)-1,3,4-oxadiazol-2-yl]-4-quinolinecarboxamide], the inhibition at 100 µM is above 100%.

`O=C(Nc1nnc(-c2ccc([N+](=O)[O-])o2)o1)c1cc(-c2ccccc2)nc2ccccc12` [Ia-84, N-[5-(5-nitro-2-furyl)-1,3,4-oxadiazol-2-yl]-2-phenyl-4-quinolinecarboxamide]: the inhibition at 100 µM came to 56%.

For `CN(C)CCOc1ccc2nc(-c3ccccc3)cc(C(=O)Nc3nnc(-c4ccco4)o3)c2c1` [Ia-88, N-[5-(2-furyl)-1,3,4-oxadiazol-2-yl]-6-[2-(dimethylamino)ethoxy]-2-phenyl-4-quinolinecarboxamide], the inhibition at 100 µM was 76%.

As to `COCCOc1ccc2nc(-c3ccccc3)cc(C(=O)Nc3nnc(-c4ccco4)o3)c2c1` [Ia-89, N-[5-(2-furyl)-1,3,4-oxadiazol-2-yl]-6-(2-methoxyethoxy)-2-phenyl-4-quinolinecarboxamide], the inhibition at 100 µM is above 100%.

Consider `O=C(Nc1nnc(-c2ccco2)o1)c1cc(-c2ccccc2)nc2ccc(OCc3ccccc3)cc12` [Ia-90, 6-benzyloxy-N-[5-(2-furyl)-1,3,4-oxadiazol-2-yl]-2-phenyl-4-quinolinecarboxamide], for which the inhibition at 100 µM was above 100%.

As for `CCCC(=O)Nc1ccc2nc(-c3ccccc3)cc(C(=O)Nc3nnc(-c4ccco4)o3)c2c1` [Ia-94, 6-butyrylamino-N-[5-(2-furyl)-1,3,4-oxadiazol-2-yl]-2-phenyl-4-quinolinecarboxamide], the inhibition at 100 µM stood at 89%.

With `O=C(Nc1nnc(-c2ccccc2)o1)c1cc(-c2cccs2)nc2ccccc12` [Ia-j, N-(5-phenyl-1,3,4-oxadiazol-2-yl)-2-(2-thienyl)-4-quinolinecarboxamide], the inhibition at 100 µM turned out to be 91%.

For the compound `O=C(Nc1nnc(-c2ccco2)s1)c1cc(-c2ccccc2)nc2ccccc12` [Ib-4, N-[5-(2-furyl)-1,3,4-thiadiazol-2-yl]-2-phenyl-4-quinolinecarboxamide], the inhibition at 100 µM was 58%.

Turning to `COc1ccc(OC)c(-c2cc(C(=O)Nc3nnc(-c4ccncc4)s3)c3ccccc3n2)c1` [Ib-c, 2-(2,5-dimethoxyphenyl)-N-[5-(4-pyridyl)-1,3,4-thiadiazol-2-yl]-4-quinolinecarboxamide], the inhibition at 100 µM was above 100%.

As for `O=C(Nc1nnc(-c2ccncc2)s1)c1cc(-c2cccnc2)nc2ccc(Cl)cc12` [Ib-d, 6-chloro-2-(3-pyridyl)-N-[5-(4-pyridyl)-1,3,4-thiadiazol-2-yl]-4-quinolinecarboxamide], the inhibition at 100 µM came to 73%.

Take `Cc1ccc(-c2cc(C(=O)Nc3nnc(-c4ccncc4)s3)c3ccccc3n2)o1` [Ib-e, 2-(5-methyl-2-furyl)-N-[5-(4-pyridyl)-1,3,4-thiadiazol-2-yl]-4-quinolinecarboxamide]: the inhibition at 100 µM was determined as 85%.

In the case of `Cc1cc(-c2cc(C(=O)Nc3nnc(-c4ccncc4)s3)c3cc(Cl)ccc3n2)c(C)s1` [Ib-f, 6-chloro-2-(2,5-dimethyl-3-thienyl)-N-[5-(4-pyridyl)-1,3,4-thiadiazol-2-yl]-4-quinolinecarboxamide], the inhibition at 100 µM came out at 100%.

Still in this assay, the particulars now being: compound at 100 μM; STAT3 reporter HeLa stable cell line; oncostatin M 10 ng/mL, 4 hours.
For `COc1ccc2cc(-c3cc(C(=O)Nc4nnc(-c5ccco5)o4)c4ccccc4n3)ccc2c1` [Ia-61, N-[5-(2-furyl)-1,3,4-oxadiazol-2-yl]-2-(6-methoxy-2-naphthyl)-quinolinecarboxamide], the “STAT3 transcription inhibitory activity (%)” value is recorded as above 100%.

For the compound “N-[(5-phenyl-1,3,4-oxadiazol-2-yl)methyl]-4-quinolinecarboxamide [Ia-10]”, the “STAT3 transcription inhibitory activity (%)” value is recorded as above 100%.

The subject of the next assay is MDA-MB-435S. Put plainly: MDA-MB-435S cell growth inhibitory activity. In kind it is cell-based. To be noted: Homo sapiens, compound at 20 μM, 72 hours, read-out: Cell growth inhibitory activity (%). How it is done:
[…] Each well was washed three times with a medium. Then, after addition of 100 μL/well of a medium and 20 μL/well of CellTiter 96 AQueous One Solution Reagent (Promega Corp.), the cells were incubated at 37° C. for 2 hours in the presence of 5% CO2.
Turning to `O=C(Nc1nnc(-c2ccccc2)o1)c1cc(-c2ccccc2)nc2ccccc12` [Ia-3, 2-phenyl-N-(5-phenyl-1,3,4-oxadiazol-2-yl)-4-quinolinecarboxamide], the inhibition at 20 µM worked out at 53%.

Turning to `COc1ccc2nc(-c3ccccc3)cc(C(=O)Nc3nnc(-c4ccco4)o3)c2c1` [Ia-23, N-[5-(2-furyl)-1,3,4-oxadiazol-2-yl]-6-methoxy-2-phenyl-4-quinolinecarboxamide], the inhibition at 20 µM was determined as 50%.

Take `Cc1ccc(-c2cc(C(=O)Nc3nnc(-c4ccco4)o3)c3cccc(C)c3n2)cc1` [Ia-27, N-[5-(2-furyl)-1,3,4-oxadiazol-2-yl]-8-methyl-2-(4-tolyl)-4-quinolinecarboxamide]: the inhibition at 20 µM is 99%.

For the compound `Cc1ccc2nc(-c3cccs3)cc(C(=O)Nc3nnc(-c4ccco4)o3)c2c1` [Ia-29, N-[5-(2-furyl)-1,3,4-oxadiazol-2-yl]-6-methyl-2-(2-thienyl)-4-quinolinecarboxamide], the inhibition at 20 µM was 98%.

For the compound `O=C(Nc1nnc(-c2ccco2)o1)c1cc(-c2cccs2)nc2ccc(Cl)cc12` [Ia-30, 6-chloro-N-[5-(2-furyl)-1,3,4-oxadiazol-2-yl]-2-(2-thienyl)-4-quinolinecarboxamide], the inhibition at 20 µM is above 100%.
